# Source: the METLIN SMRT retention time set (Domingo-Almenara et al. 2019)
# Assay: gradient 5% acetonitrile 3 min, to 50% in 2 min, to 85% in 15 min, held 3 min, 100 µL/min
# Conditions: column: Zorbax Extend-C18 2.1 x 50 mm; eluents: water / acetonitrile, 0.1% formic acid
# Procedure, shortened: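 Pure standards were run in mixtures of ~100 molecules by HPLC coupled to a quadrupole time-of-flight mass spectrometer. The column was a Zorbax Extend-C18 (2.1 × 50 mm, 1.8 μm) at 100 μL/min, with water and acetonitrile each containing 0.1% formic acid, in positive and negative ionization mode. Dead and dwell volumes were 40 μL and 900 μL. Retention time was taken from computationally picked adduct peaks, each manually inspected, with data collected over 3 months.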
row,Structure (SMILES),RP-LC retention time
1,CC(C)CCNC(=O)c1ccc(Cn2c(C(F)(F)F)nc3cccnc32)cc1,905 s
2,Cc1cc(N2CCN(C(=O)Cc3ccccc3Br)CC2)nc2nnc(C)n12,623 s
3,Cn1nnc2ccc(-c3noc(-c4ccc(Cl)cc4)n3)cc21,1090 s
4,COc1cccc(CC(=O)N2CCN3CCS(=O)(=O)N(C4CC4)C(=O)C3C2)c1 (stereo unspecified),747 s
5,Cc1cc(=O)n(CC(=O)Nc2ccccc2F)c(N2CCOCC2)n1,643 s
6,O=C(NC1CC1)C1CCN(C(=O)c2ncn3c2COC(c2ccccc2)C3)CC1 (stereo unspecified),619 s
7,Cc1cccc(OCCc2noc(C3CCN(S(=O)(=O)N(C)C)C3)n2)c1 (stereo unspecified),978 s
8,NS(=O)(=O)c1cccnc1Nc1ccc(F)c(Cl)c1,879 s
9,CC(C)c1nnc(-c2ccc(S(=O)(=O)N3CCOCC3)o2)o1,754 s
10,O=C(c1ccco1)N1CCN(c2ccc(-c3noc(C4CCC4)n3)cc2)CC1,990 s
11,CCCN(CCC)C(=O)C1CCCN(c2ncnc3c2nc2n3CCCCC2)C1 (stereo unspecified),836 s
12,CCCc1cnc2c(c1SC(C(C)=O)C(=O)N(C)C)c(=O)n(C)c(=O)n2C (stereo unspecified),720 s
13,Cc1ccc(Cn2c(=O)c(N3CCCC(C(=O)NCc4cccs4)C3)nc3ccccc32)cc1 (stereo unspecified),1170 s
14,CC(CCc1ccccc1)NC(=O)c1cc2sc(Cl)cc2n1C (stereo unspecified),1170 s
15,Cc1nc2nc(-c3ccco3)nn2c(N2CCN(c3ccccn3)CC2)c1C,596 s
16,Cc1ccn2cc(-c3ccc(NC(=O)c4ccc(Br)o4)cc3)nc2n1,647 s
17,COC(=O)c1c(NCCN2CCCc3ccccc32)c2cccc(Cl)c2[nH]c1=O,955 s
18,Cc1cccc(N2CCN(C(=O)C3CCN(Cc4cn(C)c5ccc(Cl)cc45)CC3)CC2)c1C,878 s
19,Cc1ccc2c(c1)N(S(C)(=O)=O)CCC(C(=O)Nc1cccc(Cl)c1C)O2 (stereo unspecified),1020 s
20,O=C(Nc1cccc(Cl)c1)C1CCCN(C(=O)c2cc(-c3ccccn3)n[nH]2)C1 (stereo unspecified),740 s
21,COc1cccc(NC(=O)N2CCCC2c2nc(-c3cccc(Cl)c3)no2)c1 (stereo unspecified),1050 s
22,CSc1cccc(NC(=O)Cc2csc(NC(=O)C3CCC(=O)N3)n2)c1 (stereo unspecified),627 s

row,Structure (SMILES),RP-LC retention time
1,O=C(Cn1ncn2nc(-c3cccs3)cc2c1=O)N1CCN(c2ccccn2)CC1,622 s
2,CCOC(=O)C1CCN(C(=O)c2cc(CC)n3nc(-c4ccco4)cc3n2)CC1,886 s
3,CCOc1cccc(-c2noc(-c3nnn4c3COC(c3ccc(C)cc3C)C4)n2)c1 (stereo unspecified),643 s
4,Cc1sc(NC(=O)C2CCN(S(=O)(=O)c3cccs3)CC2)c(C(N)=O)c1C,769 s
5,CSc1ccc(-c2noc(CN3C(=O)C(C)Oc4ccccc43)n2)cc1 (stereo unspecified),1140 s
6,CC(C)C(C(=O)O)N1C(=O)c2cccc3cccc(c23)C1=O (stereo unspecified),795 s
7,Cc1nn(CC(=O)NCCN2CCCCC2)c(=O)c2nc(-c3ccccc3)sc12,623 s
8,Cc1ccc(S(=O)(=O)N2C(=O)CCC2C(=O)N2CCc3ccccc32)cc1C (stereo unspecified),1000 s
9,Cc1ccc(-c2nc3cnccn3c2NCCC(=O)NCC(C)C)cc1,690 s
10,CN(C)[C@@H]1CN(C(=O)COc2ccccc2)C[C@H]1CO,546 s
11,O=C(NCc1ccc(F)cc1)c1ccc2c(c1)nc1n2CCN(c2ccccc2)C1=O,760 s
12,O=C(Cc1ccccc1F)NC1CCN(c2cc(-c3ccccc3)[nH]n2)C1 (stereo unspecified),688 s
13,Cc1nn(C(C)C)c(C)c1-c1cc(C(=O)O)[nH]n1,617 s
14,CC(=O)Nc1cccc(-c2nc(-c3ccc4c(c3)oc(=O)n4C)no2)c1C,750 s
15,CC(=O)Nc1c(C)nn(-c2ccccc2)c1N1CCC(C(=O)N2CCN(C3CCCCC3)CC2)CC1,597 s
16,Cn1cccc(C(=O)N2CCC(CNC(=O)c3ccc(Cl)s3)CC2)c1=O,610 s
17,CCn1c(C(=O)N2CCN(c3ncccn3)CC2)cc2cc(S(=O)(=O)N(C)C)ccc21,830 s
18,COc1ccc(OC)c(CNC(=O)C2CCN(Cc3cn(C)c4ccc(Cl)cc34)CC2)c1,717 s
19,COc1ccc(NC(=O)CCc2c(C)nn(-c3cc(N4CCCC4)ncn3)c2C)c(OC)c1,801 s
20,CN(C)[C@@H]1CN(C(=O)c2cc(Cl)ccc2F)C[C@H]1CO,571 s
21,Cc1cc(C)n(-c2ccnc(N3CCC(C(=O)NCc4ccco4)CC3)n2)n1,742 s
22,COc1cc(OC)cc(-c2nnc(Cc3nc(-c4ccc(F)cc4)no3)o2)c1,1040 s

row,Structure (SMILES),RP-LC retention time
1,Cc1ccc(N2CCC(NC(=O)c3ccccc3C(F)(F)F)C2=O)cc1 (stereo unspecified),885 s
2,Cc1ccc(-c2nc(NC(=O)c3cc4ccccc4o3)sc2C)cc1,1220 s
3,CS(=O)(=O)Nc1ccc(C2(C(=O)NCc3cc(F)cc(F)c3)CCCCC2)cc1,916 s
4,COc1ccc(NC(=O)Cn2nc3c4ccccc4ncn3c2=O)cc1Cl,674 s
5,COc1ccc(NS(=O)(=O)c2cc(-c3[nH]ncc3C(=O)N3CCCCC3)oc2C)cc1,731 s
6,CCc1ccc(-c2noc(Cn3c(=O)n(-c4ccc(C)cc4)c(=O)c4sccc43)n2)cc1,1160 s
7,Cc1noc(-c2ccnc(-n3cnc(C(=O)N4CCOCC4)c3)c2)n1,638 s
8,O=c1ccn(-c2ccc(Cl)cc2)nc1-c1nc(-c2ccc(Br)cc2)no1,1080 s
9,Cn1cc(C2=CCN(C(=O)Nc3ccc(F)cc3F)CC2)c2cccnc21,792 s
10,O=C(NCCC1CCN(C(=O)Nc2cc(F)cc(F)c2)CC1)C1CCC1,810 s
11,Cc1ccc(NC(=O)N2CC(c3nc(C)no3)C3(CCOCC3)C2)cc1 (stereo unspecified),716 s
12,O=C(NCc1cccs1)C1CCN(c2nc3ccc(Cl)cc3[nH]2)CC1,644 s
13,CCCN(CC1CCOC1)C(=O)c1ccc(F)cc1F (stereo unspecified),743 s
14,O=C(NC1CCN(c2cc(-c3ccc(F)cc3)[nH]n2)C1)c1ccc(Cl)cc1 (stereo unspecified),777 s
15,Cc1cc(C)nc(SCc2ccc(C(=O)NCCc3c[nH]c4ccccc34)o2)n1,894 s
16,CC(=O)N1CCC(C(=O)Nc2cccc(OCc3nnc(-c4ccc(Cl)cc4)o3)c2)CC1,762 s
17,Cc1nn(C)c2c(=O)n(CC(=O)N3CCN(c4ccccn4)CC3)ccc12,558 s
18,O=C(NCCC1=CCCCC1)c1nnc(-c2ccc(S(=O)(=O)N3CCOCC3)cc2)o1,984 s
19,CCCCOc1ccc(-c2nc(C3CC(=O)N(c4ccc(F)c(Cl)c4)C3)no2)cc1 (stereo unspecified),1370 s
20,CCn1c(N2CCCC(C(=O)NCCN3CCN(c4ccccc4)CC3)C2)cc(=O)n(C)c1=O (stereo unspecified),638 s
21,COC(=O)Nc1nc2ccc(S(=O)c3ccccc3)cc2[nH]1 (stereo unspecified),658 s
22,COCCCNC(=O)C1c2ccccc2C(=O)N(C2CCCCC2)C12CCCCC2 (stereo unspecified),946 s
